In brackets after ≈: the same amount, converted by molar mass. Like-named read-outs stand apart in the source and are kept apart here.
Assay: Solubility testing in FaSSIF, FeSSIF and SGF (37°C, HPLC of filtrate)
Format: physicochemical
Details: for pH after 2 h: pH of the 2-hour filtrate; for solubility at 0.5 h / solubility at 2 h: thermodynamic from solid, 37°C; for solubility at 0.5 h: read-out: Solubility (mg/mL) 0.5 h; for solubility at 2 h: read-out: Solubility (mg/mL) 2 h
Method: Preparation of FaSSIF stock solution with pH buffer: Approximately 621 mg of NaCl, approximately 345 mg of NaH2PO4, and approximately 41.9 mg of NaOH are weighed into a 100 mL volumetric flask, and dissolved in water to approximately 5 cm below the mark. After cooling and pH adjustment, the resulting mixture is diluted to volume with water, and mixed thoroughly with shaking.
FeSSIF stock solution: Approximately 866 mg of glacial acetic acid, approximately 406 mg of NaOH, and approximately 1184 mg of NaCl are weighed into a 100 mL volumetric flask, and dissolved in water to approximately 5 cm below the mark. After cooling and pH adjustment, the resulting mixture is diluted to volume with water, and mixed thoroughly with shaking.
SGF solution: Approximately 202 mg of NaCl and approximately 321 mg of pepsin are weighed into a 100 mL volumetric flask, followed by addition of 700 µL of HCl, and dissolved in water to approximately 5 cm below the mark. After cooling, the resulting mixture is diluted to volume with water, and mixed thoroughly with shaking.
(§1) FaSSIF solution: FaSSIF stock solution is transferred to a 100 mL volumetric flask, followed by addition of approximately 225 mg of FaSSIF powder, and dissolved in FaSSIF stock solution to approximately 5 cm below the mark. After cooling, the resulting mixture is diluted to volume with FaSSIF stock solution, mixed thoroughly with shaking, and allowed to stand for 2 hours before use.
as §1, with “FeSSIF” for “FaSSIF”, “1122” for “225”, “solution, and” for “solution,”, “shaking.” for “shaking, and allowed to stand for 2 hours before use.”
Approximately 20 mg of sample is weighed into a 4 mL vial, followed by addition of 4 mL of different solvents (FaSSIF, FeSSIF, SGF). After the vial is equipped with a magnetic stir bar, the mixture is stirred at 37°C for 2 hours, during which samples are taken at 0.5 hours and 2 hours. After filtration, the sample concentration in the filtrate is determined by HPLC. The pH of the 2-hour filtrate and the crystal form of the remaining solid are also measured.

- solubility in aqueous media (background statement): poorly soluble
- pH after 2 h (FaSSIF): 6.58
- pH after 2 h (FeSSIF): 5.02
- pH after 2 h (SGF): 1.28
- solubility at 0.5 h (simulated gastric fluid, SGF): 0.699 mg/mL (≈ 1450 µM)
- solubility at 2 h (simulated gastric fluid, SGF): 0.524 mg/mL (≈ 1090 µM)
- solubility at 0.5 h (FaSSIF): 0.00026 mg/mL (≈ 0.539 µM)
- solubility at 2 h (FaSSIF): 0.00026 mg/mL (≈ 0.539 µM)
- solubility at 0.5 h (FeSSIF): 0.00313 mg/mL (≈ 6.49 µM)
- solubility at 2 h (FeSSIF): 0.00293 mg/mL (≈ 6.07 µM)
Structure (SMILES): COc1cc(Nc2ccc3ncc(N4CCOCC4)nc3c2C#N)ccc1OCc1ccc(C)nc1 [Compound 1, 6-((3-methoxy-4-((6-methylpyridin-3-yl)methoxy)phenyl)amino)-3-morpholinoquinoxaline-5-carbonitrile]
